Test results as given in patent US9610331B2, “Methods for hematopoietic precursor mobilization” (Yeda Research and Development Co. Ltd., priority 2009, dated 2017).
Ends that are not written are not given here. * marks the point of attachment. Palmitoyl = CCCCCCCCCCCCCCCC(=O)*

Assays:
CD34+ cells = details: cited from earlier work
C57BL mice = test: G-CSF induced splenomegaly (spleen weight) in C57BL mice; type: in vivo
Protocol: All animals were maintained under conditions approved by the Institutional Animal Care and Use Committee at the Weizmann Institute. The study protocol was approved by the ethics committees at Weizmann Institute. In these experiments, 8 to 10 week old immune competent C57BL mice were used. All mice were kept in small cages (up to five animals per cage) and fed sterile food.
Mice were treated by daily subcutaneous injections of recombinant human G-CSF (Neupogen, Amgen) at a dose of 250 μg per kg per day for 7 days. To determine the spleen weight, mice were euthanized and spleens were harvested 7 days after the initiation of G-CSF treatment.
Dabigatran etexilate (Boehringer Ingelheim Pharma KG, Biberach, Germany) was administered orally at a dosage of 30 mg/kg. A final volume of 0.3 ml dissolved in DDW was administered daily.
The palmitoylated peptides: pal-RCLSSSAVANRS (PAR1 antagonist, SEQ ID NO: 1) and pal-SGRRYGHALR (PAR4 antagonist, SEQ ID NO: 2) were prepared by solid-phase peptide synthesis using in situ neutralization/HBTU by Hadar Biotec, Israel. The mice were treated by vehicle control, or with PAR1 antagonist or PAR4 antagonist at 0.5 mg/kg, intraperitoneally on daily basis.

spleen cells = test: Cellular composition of spleen by flow cytometry; type: in vivo, mouse; details: for B cells (B220) / Granulocytes (Gr-1) / Macrophages (CD11b) / T cells (CD3): spleen, C57BL mice, 7 days treatment, mean ± SD
Protocol: (§1) Membrane expression of different molecules on mouse bone marrow (BM) and spleen cells was detected by flow cytometry, using one- or two-step staining procedures.
(§2) Cellular composition of the hematopoietic compartment was stained by CD3-FITC, B220-PE, CD-11b allophycocyanin and Gr-1 FITC ((Pharmigen, BD).
(§3) After staining, cells were washed and analyzed LSRII (Becton Dickinson) using FlowJo software.
(§4) Comparisons between the different groups were evaluated using the Student's test. Data were expressed as mean±SD, and were considered statistically significant at p values of 0.05 or less.

bone marrow (BM) cells = test: Cellular composition of bone marrow by flow cytometry; type: in vivo, mouse; details: for B cells (B220) / Granulocytes (Gr-1) / Macrophages (CD11b) / T cells (CD3): bone marrow, C57BL mice, 7 days treatment, mean ± SD
Protocol: as §1, §2, §3, §4

[1] = test system: hematopoietic progenitors; test: Colony-forming assay of spleen cells (CFU/spleen); type: in vivo, mice; details: for precursor mobilization (CFU/spleen), enhancement as compared to non-treated mice: antagonist added to G-CSF treatment; for circulating CFU/spleen compared with C57BL/6 mice: at 7 days after G-CSF treatment, P<0.05 vs C57BL/6 (n=5), FIG. 3 legend
Protocol: All animals were maintained under conditions approved by the Institutional Animal Care and Use Committee at the Weizmann Institute. The study protocol was approved by the ethics committees at Weizmann Institute. In these experiments, 8 to 10 week old immune competent C57BL mice and C57BL hemophilic (C57BL Hem F8) mice were used. All mice were kept in small cages (up to five animals per cage) and fed sterile food. Cells were plated in 0.9% methylcellulose (Sigma Chemical Co.), 30% FCS, DMEM medium (Sigma Chemical Co.), 50 ng/ml stem cell factor (SCF), 5 ng/ml IL-3 (R&D Systems Inc.), 5 ng/ml GM-CSF (R&D Systems Inc.), and 2 U/ml erythropoietin (EPO; Orto Bio Tech, Don Mills, Ontario, Canada). Total spleen cells 5×10^5 were seeded in semisolid cultures. Colonies were scored 7 days later under an inverted microscope (CK2; Olympus), applying morphological criteria. To study the role of thrombin in the mobilization of hematopoietic progenitors, inventors enumerated these cells by their ability to form colonies in semi-solid media. Thus, after 7 days of treatment with G-CSF with or without PAR antagonists, the number of hematopoietic progenitors in the spleen was estimated by plating the low density mononuclear cells in methylcellulose containing appropriate nutrients and growth factors (see materials and experimental procedures, above). The plates were incubated for 7 days and the colonies were scored using a low magnification microscope. The number of progenitors mobilized into the spleen was presented as CFU/spleen (FIG. 3). […] However, the addition of PAR1 or PAR4 antagonists to G-CSF treatment led to further enhancement of precursor mobilization by 15.3 and 6.4 fold, respectively (as compared to non-treated mice). Likewise, in Factor VIII knock out (KO) mice, which have low thrombin levels due to the absence of Factor VIII, an enhancement of spleen colonies by a factor of 15.9 was recorded upon treatment with G-CSF.

Lin−Kit+Sca+ stem cell = test: Lin-Kit+Sca+ stem cell numbers in blood, spleen and BM by FACS; type: in vivo, mouse; details: FIG. 4
Source text: Membrane expression of different molecules on mouse bone marrow (BM), spleen and peripheral blood (PB) mononuclear cells (MNCs) was detected by flow cytometry, using one- or two-step staining procedures.
Cells were stained for lineage negative Lin− (CD3, B220, CD11b, Gr-1 and Ten-119 were biotinilated and detected by strepavidine Pe-Cy7), stem cell factor receptor positive (c-kit allophycocyanin+), stem cell antigen-1 positive (Sca-1 PE+) using Pharmigen, BD.
After staining, cells were washed and analyzed on LSRII (Becton Dickinson) using FlowJo software.
as §4

HSPC = details: after a single injection; cited from earlier work
C57BL/6 mice = details: 7 day daily G-CSF treatment of C57BL/6 mice; cited from earlier work
[2] = with G-CSF for 7 days, antagonist 0.5 mg/kg intraperitoneally daily, FIG. 2

## c1cc(CN2CCCNCCNCCCNCC2)ccc1CN1CCCNCCNCCCNCC1 [AMD3100]
CD34+ cells; in combination with G-CSF in mice
  mobilization capacity of G-CSF: significantly improves
CD34+ cells; on its own
  mobilization of CD34+ cells: adequately

## CCCCCCOC(=O)NC(=N)c1ccc(NCc2nc3cc(C(=O)N(CCC(=O)OCC)c4ccccn4)ccc3n2C)cc1 [Dabigatran, Dabigatran etexilate, reference compound]
C57BL mice; in conjunction with G-CSF 250 μg per kg per day s.c. for 7 days, Dabigatran etexilate 30 mg/kg orally daily, FIG. 1
  G-CSF induced splenomegaly: marked enhancement

## pal-RCLSSSAVANRS (Palmitoyl-RCLSSSAVANRS) [PAR1 antagonist]
C57BL mice; [2]
  G-CSF induced splenomegaly: significantly enhanced
Spleen cells
  B cells (B220): 50.57 ± 4.36%
  Granulocytes (Gr-1): 3.99 ± 2.42%
  Macrophages (CD11b): 2.96 ± 1.18%
  T cells (CD3): 39.59 ± 3.41%
Bone marrow (BM) cells
  B cells (B220): 13.42 ± 5%
  Granulocytes (Gr-1): 38.26 ± 5.31%
  Macrophages (CD11b): 34.40 ± 5.16%
  T cells (CD3): 2.28 ± 0.46%
[1]; 7 days, C57BL mice, FIG. 3
  precursor mobilization (CFU/spleen), enhancement as compared to non-treated mice: 15.3 fold
[1]
  circulating CFU/spleen compared with C57BL/6 mice: more
Lin−Kit+Sca+ stem cell; co-treatment with G-CSF
  Lin−Kit+Sca+ stem cell number in the blood and the spleen: highest increase
  Lin−Kit+Sca+ stem cell numbers in the bone marrow: clearly enhanced
Lin−Kit+Sca+ stem cell; without G-CSF treatment
  Lin−Kit+Sca+ stem cells numbers in the blood and especially in the BM: marked enhancement

## pal-SGRRYGHALR (Palmitoyl-SGRRYGHALR) [PAR4 antagonist]
C57BL mice; [2]
  G-CSF induced splenomegaly: significantly enhanced
Spleen cells
  B cells (B220): 46.34 ± 4.23 %
  Granulocytes (Gr-1): 4.41 ± 2.08%
  Macrophages (CD11b): 3.53 ± 1.49%
  T cells (CD3): 39.63 ± 3.52%
Spleen cells; summary of Table 1
  B cell numbers in the spleen: reduced
Bone marrow (BM) cells; Table 2
  B cell numbers in the BM: reduced
Bone marrow (BM) cells
  B cells (B220): 16.16 ± 7.26%
  Granulocytes (Gr-1): 50.58 ± 9.74%
  Macrophages (CD11b): 41.06 ± 12.93%
  T cells (CD3): 2.93 ± 1.54%
[1]; 7 days, C57BL mice, FIG. 3
  precursor mobilization (CFU/spleen), enhancement as compared to non-treated mice: 6.4 fold
[1]
  circulating CFU/spleen compared with C57BL/6 mice: more

## zymosan
HSPC
  time to mobilize HSPC: ≤ 1 h

B1: G-CSF: recombinant human G-CSF (Neupogen, Amgen) (protein, UniProt P09919 31-207, looked up)
Granulocyte …: TPLGPASSLPQSFLLKCLEQVRKIQGDGAALQEKLVSECATYKLCHPEELVLLGHSLGIPWAPLSSCPSQALQLAGCLSQLHSGLFLYQGLLQALEGISPELGPTLDTLQLDVADFATTIWQQMEELGMAPALQPTQGAMPAFASAFQRRAGGVLVASHLQSFLEVSYRVLRHLAQP
modifications: filgrastim
Spleen cells; after G-CSF treatment, summary of Table 1
  number of granulocytes and macrophages in the spleen: marked elevation
Spleen cells
  B cells (B220): 47.37 ± 1.33%
  Granulocytes (Gr-1): 10.21 ± 2.69%
  Macrophages (CD11b): 8.16 ± 2.07%
  T cells (CD3): 34.16 ± 3.17%
Bone marrow (BM) cells; after G-CSF treatment, Table 2
  number of granulocytes and macrophages in the BM: marked elevation
Bone marrow (BM) cells
  B cells (B220): 3.18 ± 1.01%
  Granulocytes (Gr-1): 77.06 ± 7.38%
  Macrophages (CD11b): 74.37 ± 7.79%
  T cells (CD3): 0.98 ± 0.85%
[1]; Factor VIII knock out (KO) mice, upon treatment with G-CSF
  enhancement of spleen colonies: 15.9 fold
[1]; G-CSF treatment alone, 7 days, C57BL mice, FIG. 3
  mobilization of progenitors (CFU/spleen), enhancement as compared to non-treated mice: 2.8 fold
C57BL/6 mice
  hematopoietic stem cell (HSC) mobilization and splenomegaly: induced
